Converted amounts (≈) assume the structure as drawn. Positions of bridges follow the written chain, without caps; N, C: chain ends. Non-standard residues stand in square brackets, D forms with d. Residues, ends and D or L forms follow the SMILES beside them. *: point of attachment. Decanoyl(3R-OH) = CCCCCCC[C@@H](O)CC(=O)*; hPhe = N[C@@H](CCc1ccccc1)C(=O)O; dDab = NCC[C@@H](N)C(=O)O; Dab = NCC[C@H](N)C(=O)O
Experiments:
A. baumannii GN_093 PmxR = conditions: GN 093 PmxR
Procedure, shortened: (§1)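 Mid-log cultures grown in Mueller Hinton broth at 37° C were tested by 2-fold broth microdilution at 5×10^5 CFU/mL final. Compounds were dissolved in water and tested over a final range of 32 to 0.015 μg/mL.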

P. aeruginosa ATCC 27853 = conditions: ATCC 27853
Procedure, shortened: as §1

[1] = tested on: K. pneumoniae GN_102 PmxR; conditions: GN 102 PmxR
Procedure, shortened: as §1

K. pneumoniae ATCC 13883 = conditions: ATCC 13883
Procedure, shortened: as §1

[2] = tested on: K. pneumoniae ATCC 700603, MDR; conditions: ATCC 700603
Procedure, shortened: as §1

[3] = tested on: K. pneumoniae GN_106, PmxR; conditions: GN 106, PmxR
Procedure, shortened: as §1

[4] = tested on: K. pneumoniae ATCC BAA-2146, NDM-1 pos; conditions: ATCC BAA-2146
Procedure, shortened: as §1

A. baumannii ATCC 19606 = conditions: ATCC 19606
Procedure, shortened: as §1

E. coli ATCC 25922 = conditions: ATCC 25922
Procedure, shortened: as §1

[5] = tested on: S. aureus ATCC 25923, MSSA; conditions: ATCC 25923
Procedure, shortened: as §1

[6] = tested on: P. aeruginosa GN_043, PmxR; conditions: polymyxin-resistant
Procedure, shortened: as §1

[7] = tested on: P. aeruginosa GN_105, PmxR; conditions: GN 105, PmxR
Procedure, shortened: as §1

CCCCCCC[C@@H](O)CC(=O)N[C@H](CCN)C(=O)N[C@H]1CCNC(=O)[C@H](Cc2c[nH]c3ccccc23)NC(=O)[C@H](CCN)NC(=O)[C@H](CCN)NC(=O)[C@H](CCc2ccccc2)NC(=O)[C@@H](Cc2ccccc2)NC(=O)[C@H](CCN)NC1=O [compound 8834, nC10-3(R)OH-D-Dab-cyc[L-Dab-L-Dab-D-Phe-L-hPhe-L-Dab-L-Dab-L-Trp]] ({Decanoyl(3R-OH)}-[dDab][Dab][Dab][dF][hPhe][Dab][Dab]W; lactam 2-C)
MIC A. baumannii GN_093 PmxR (A. baumannii GN_093 PmxR): 8 µg/mL (≈ 6.86 µM) | MIC P. aeruginosa ATCC 27853 (P. aeruginosa ATCC 27853): 4 µg/mL (≈ 3.43 µM) | MIC K. pneumoniae GN_102 PmxR [1]: 4 µg/mL (≈ 3.43 µM) | MIC K. pneumoniae ATCC 13883 (K. pneumoniae ATCC 13883): 4 µg/mL (≈ 3.43 µM) | MIC K. pneumoniae ATCC 700603, MDR [2]: 8 µg/mL (≈ 6.86 µM) | MIC K. pneumoniae GN_106, PmxR [3]: 8 µg/mL (≈ 6.86 µM) | MIC K. pneumoniae ATCC BAA-2146, NDM-1 pos [4]: 8 µg/mL (≈ 6.86 µM) | MIC A. baumannii ATCC 19606 (A. baumannii ATCC 19606): 8 µg/mL (≈ 6.86 µM) | MIC E. coli ATCC 25922 (E. coli ATCC 25922): 8 µg/mL (≈ 6.86 µM) | MIC S. aureus ATCC 25923, MSSA [5]: 4 µg/mL (≈ 3.43 µM) | MIC P. aeruginosa GN_043, PmxR [6]: 4 µg/mL (≈ 3.43 µM) | MIC P. aeruginosa GN_105, PmxR [7]: 32 µg/mL (≈ 27.5 µM)
